Assay [1] concerns CCRF-CEM. Briefly: Antiproliferative activity against human CCRF-CEM cells at 10'5 M. The class given is functional.
The test system of assay [2] is RPMI-8226. Briefly: (§1) Antiproliferative activity against human RPMI8226 cells at 10'5 M. The format is functional.
The subject of assay [3] is SR. Nature of the assay: Antiproliferative activity against human SR cells at 10'5 M. The class given is functional.
In assay [4] the test system is MCF7. Nature of the assay: Antiproliferative activity against human MCF7 cells at 10'5 M. The class given is functional.
Assay [5] concerns HCT-116. Briefly: (§2) Antiproliferative activity against human HCT116 cells at 10'5 M. The format is functional.
Assay [6] relates to K562. Nature of the assay: Antiproliferative activity against human K562 cells at 10'5 M. The format is functional.
Assay [7] concerns MOLT-4. Nature of the assay: Antiproliferative activity against human MOLT4 cells at 10'5 M. The class given is functional.
For assay [8], the system named is NCI-H460. Nature of the assay: Antiproliferative activity against human NCI-H460 cells at 10'5 M. The format is functional.
Assay [9] relates to Malme-3M. Briefly: Antiproliferative activity against human MALME-3M cells at 10'5 M. The format is functional.
For assay [10], the system named is NCI/ADR-RES. Nature of the assay: Antiproliferative activity against human NCI-ADR-RES cells at 10'5 M. The class given is functional.
The subject of assay [11] is SK-OV-3. Briefly: Antiproliferative activity against human SKOV3 cells at 10'5 M. The class given is functional.
The test system of assay [12] is TK-10. Briefly: Antiproliferative activity against human TK10 cells at 10'5 M. The format is functional.
In assay [13] the test system is PC-3. Nature of the assay: Antiproliferative activity against human PC3 cells at 10'5 M. The class given is functional.
The test system of assay [14] is HCC 2998. Nature of the assay: Antiproliferative activity against human HCC2998 cells at 10'5 M. The class given is functional.
The test system of assay [15] is SNB-75. Nature of the assay: Antiproliferative activity against human SNB75 cells at 10'5 M. The format is functional.
Assay [16] has as its system IGROV-1. Briefly: Antiproliferative activity against human IGROV1 cells at 10'5 M. The class given is functional.
Assay [17] concerns OVCAR-4. Nature of the assay: Antiproliferative activity against human OVCAR4 cells at 10'5 M. The format is functional.
In assay [18] the test system is DU-145. Briefly: Antiproliferative activity against human DU145 cells at 10'5 M. The class given is functional.
The subject of assay [19] is Hs-578T. Briefly: Antiproliferative activity against human Hs 578T cells at 10'5 M. The class given is functional.
The nature of assay [20]: as §1. The format is functional, RPMI-8226.
Assay [21] is described as follows: as §2. The format is functional, HCT-116.

Active and inactive are the calls of the source. The calls are words filed in the database; no cut-off is given here.

In the case of `O=C(/C=C/c1ccccc1)n1c(-c2ccccc2O)nc2ccccc21`, the outcome in assay [1], in [2], in assay [3], in assay [4], in [5] and in assay [6] was inactive. Besides, the outcome in assay [7], in [8], in assay [9], in [10], in [11] and in assay [12] was inactive. Further, the result in assay [13], in assay [14], in assay [15], in assay [16], in assay [17] and in [18] was inactive. The result in assay [19] was inactive.

Turning to `Cc1ccc2ncn(C(=O)/C=C/c3ccccc3)c2c1`, the result in assay [1], in [2], in assay [3], in assay [4], in assay [5] and in assay [6] was inactive. Besides, the result in [7], in [8], in assay [9], in assay [10], in assay [11] and in assay [12] was inactive. Moreover, the outcome in [13], in assay [14], in assay [15], in [16], in [17] and in assay [18] was inactive. In addition, in assay [19], the result was inactive.

As to `O=C(/C=C/c1ccccc1)n1c(-c2ccccc2)nc2ccccc21`, the outcome in [1], in assay [2], in assay [3], in [4], in assay [5] and in [6] was inactive. Besides, the result in assay [7], in assay [8], in assay [9], in assay [10], in assay [11] and in [12] was inactive. Also, the outcome in assay [13], in assay [14], in assay [15], in [16], in [17] and in assay [18] was inactive. The result in [19] was inactive.

On to `Cc1nc2ccccc2n1C(=O)/C=C/c1ccccc1`, for which the outcome in [1], in assay [2], in [3], in assay [4], in assay [5] and in [6] was inactive. The outcome in [7], in assay [8], in assay [9], in [10], in assay [11] and in assay [12] was inactive. Moreover, the result in assay [13], in [14], in assay [15], in assay [16], in assay [17] and in assay [18] was inactive. Moreover, the result in [19] was inactive.

Consider `Cc1cc2ncn(C(=O)/C=C/c3ccccc3)c2cc1C`, for which the result in [1], in assay [2], in assay [3], in assay [4], in [5] and in assay [6] was inactive. The outcome in [7], in [8], in [9], in assay [10], in assay [11] and in assay [12] was inactive. The outcome in assay [13], in [14], in assay [15], in assay [16], in [17] and in assay [18] was inactive. In addition, the outcome in [19] was inactive.

`Cc1ccc2nc[nH]c2c1`: the “growth inhibition (GI)” value in assay [1] was 60.81%; in [20], 88.17%; in [3], 84.7%; in assay [4], 73.43%; in assay [21] it was 64.84%.

Consider `O=C(/C=C/c1ccccc1)n1c(-c2ccc(O)cc2)nc2ccccc21`, for which the outcome in [1], in assay [2], in assay [3], in assay [4], in [5] and in [6] was inactive. Further, the outcome in assay [7], in assay [8], in [9], in [10], in [11] and in [12] was inactive. For the same compound, the outcome in assay [13], in [14], in assay [15], in assay [16], in assay [17] and in [18] was inactive. Also, the result in assay [19] was inactive.

For `Cc1cc2nc[nH]c2cc1C` [DIMEDAZOL], the “growth inhibition (GI)” value is 64.66% in [1], 63.61% in [20], 64.66% in assay [3] and 69.59% in [4].

As to `COc1ccc(-c2nc3ccccc3n2C(=O)/C=C/c2ccccc2)cc1`, the outcome in assay [1], in [2], in [3], in assay [4], in assay [5] and in assay [6] was inactive. Also, the outcome in assay [7], in [8], in assay [9], in [10], in [11] and in assay [12] was inactive. Moreover, the result in [13], in assay [14], in assay [15], in assay [16], in [17] and in assay [18] was inactive. Moreover, in assay [19], the outcome was inactive.

These data come from ChEMBL document CHEMBL3769371, “1-[(2E)-3-Phenylprop-2-enoyl]-1H-benzimidazoles as anticancer agents: synthesis, crystal structure analysis and binding studies of the most potent anticancer molecule with serum albumin” (Medchemcomm, 2015).
